According to patent publication EP2116236A1, “Bisbenzamidine derivatives for use as antioxidant” (Université de Mons-Hainaut, priority 2008, dated 2009):

Experiments:
[1] = superoxide dismutase activity: inhibition of pyrogallol auto-oxidation; assay type: biochemical; conditions: for Percent inhibition of the rate of pyrogallol auto-oxidation: compound 0.5 mM, pyrogallol 0.750 mM, TRIS saline buffer pH 7.4, first two minutes, average of three measures
Protocol: The pyrogallol auto-oxidation was measured at 420 nm according to the procedure Marklund & Marklund as reported in Vamecq et al. (2003). The incubation medium comprised TRIS saline buffer at pH 7.4 (5 mM TRIS, 50 mM NaCl) with either the vehicle (DMSO) or one of the compounds (final concentration 0.5 mM ) dissolved in DMSO. The reaction was triggered by the addition of pyrogallol (0.750 mM).
The results are given as percent inhibition of the rate of pyrogallol auto-oxidation measured during the first two minutes.

[2] = glutathione peroxidase activity: stimulation of peroxide-induced oxidation of reduced glutathione; assay type: biochemical; conditions: for Effects of the compounds on the oxidation rate (%): average glutathione oxidation rate, vehicle control = 100 %, 2 mM reduced glutathione, 10 µl 50 mM compound in 1 mL, pH 7.4; for Glutathione peroxidase activity: 2 mM reduced Glutathione
Protocol: The activity of glutathione peroxidase compounds refers to the stimulation by the compounds of the peroxide-induced oxidation of reduced glutathione (H2O2, t-butyl-hydroperoxide or cumene hydroperoxide). […] The formation of oxidized glutathione results in the oxidation of NADPH in the presence of glutathione reductase. The NADPH oxidation is then measured and reflects the formation of oxidized glutathione. In view of the absorbance of the compounds, NADPH oxidation was measured by the fluorescent emission at 466 nm when excited at 366 nm, which a corrected quenching.
The glutathione oxidation was measured in the presence of NADPH and glutathione reductase in 1 ml cell by fluorimetry (λexcitation = 366 nm and λemission= 466 nm). The cell contained 1 mL of 10 mM phosphate buffer pH 7.4, 0.25 mM NADPH, 10 µl DMSO (or 10 µl 50 mM compound dissolved in DMSO), 2 mM reduced glutathione and two units of glutathione reductase (Saccharomyces cerevisiae). The reaction was triggered by the addition of peroxide (5 mM t-butyl-hydroperoxide). A stimulation of the rate of peroxide-induced oxidation of glutathione was considered as glutathione peroxidase activity.

[3] = system: electrical seizure MCS (6 Hz); assay: Maximal Clonic Seizures (MCS) 6 Hz electroshock test; assay type: in vivo
Protocol: (§1) The tests were performed in rodents as described in J. Vamecq et al. Eur. J. Neurosc. 2003, 18, 1110. The results are shown in Table 1, wherein ScPtz refers to subcutaneous pentylenetetrazol, MES refers to Maximal Electroshock Seizures, MCS refers to Maximal Clonic Seizures, and ND means "not determined". The results are given as ED50 in mg/kg.

chemical seizure (scPtz) = assay: subcutaneous pentylenetetrazol (scPtz) induced chemical seizure test; assay type: in vivo; conditions: Mus musculus, ip
Protocol: as §1

audiogenic seizure = audiogenic seizure test in magnesium deficient animals; assay type: in vivo
Protocol: as §1

[4] = system: electrical seizure MES (50 Hz); assay: Maximal Electroshock Seizures (MES) test; assay type: in vivo; conditions: Mus musculus, ip
Protocol: as §1

Row | SMILES | Percent inhibition of the rate of pyrogallol auto-oxidation [1] | scavenging activity toward the superoxide anion ([1]; result in words) | Effects of the compounds on the oxidation rate (%) ([2]; 5 mM t-butyl-hydroperoxide) | electrical seizure MCS (6 Hz) (mouse ip) ED50 [3] | ED50 ([3]; Mus musculus, ip) | ED50 (chemical seizure (scPtz)) | audiogenic seizure (mouse ip) ED50 (audiogenic seizure) | ED50 (audiogenic seizure; mouse ip) | Glutathione peroxidase activity ([2]; 2.5 mM cumene hydroperoxide) | Glutathione peroxidase activity ([2]; 2.5 mM hydrogen peroxide) | Glutathione peroxidase activity ([2]; 5 mM hydrogen peroxide) | Glutathione peroxidase activity ([2]; 5 mM t-butyl-hydroperoxide) | ED50 [4]
1 | N=C(N)c1ccc(N)cc1 [4-aminobenzaminidine, 4-aminobenzamidine, reference compound] | < 5% | does not have any scavenging activity | – | – | – | – | – | – | – | – | – | – | –
2 | N=C(N)c1ccc(NCCNc2ccc(C(=N)N)cc2)cc1 [Compound 2, 4,4'-(1,2-ethanediyldiimino)bisbenzenecarboximidamide] | 36.3% | – | < 100% | ED50 = 48.95 mg/kg | 60 to 100 mg/kg | > 300 mg/kg | active | 6.9 mg/kg | – | – | – | – | –
3 | CN(CCN(C)c1ccc(C(=N)N)cc1)c1ccc(C(=N)N)cc1 [Compound 3, 4,4'-[1,2-ethanediyl (N,N'-dimethyl bisnitrilo)]bis(benzenecarboximidamide)] | 51.0% | – | 197% | – | – | > 300 mg/kg | little activity at non toxic doses | – | 128% | 117% | 108% | 197% | –
4 | CN(CCNc1ccc(C(=N)N)cc1)c1ccc(C(=N)N)cc1 [Compound 4, 4,4'-(N-methyl 1,2-ethanediyldiimino)bis(benzenecarboximidamide)] | 17.5% | – | 107% | – | – | > 100 mg/kg | little activity at non toxic doses | – | – | – | – | – | > 100 mg/kg
5 | CCN(CCNc1ccc(C(=N)N)cc1)c1ccc(C(=N)N)cc1 [Compound 5, 4,4'-(N-ethyl-1,2-ethanediyldiimino)bis(benzenecarboximidamide)] | 28.8% | – | 105% | – | – | > 30 mg/kg | little activity at non toxic doses | – | – | – | – | – | –
